PubChem BioAssay AID1918955 (Molecular Pharmacology Branch, DTP, NCI, 2023)
“And” between values parts separate entries of the source, which are not always exact repeats. Equal values may be shown once.

System: NCI/ADR-RES complex spheroid viability
Test: Anticancer human tumor NCI/ADR-RES cell line growth inhibition;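 for viability, T/C: 100% = DMSO vehicle treated spheroids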
Settings: for viability, T/C: stronger effect = lower value
Summary of the method: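 Complex spheroids of tumor cells with HUVEC and human MSCs, exposed to iadademstat combined with other agents. Each agent tested in half-log steps from near clinical Cmax (else 10 microM top), DMSO ≤0.25%.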

[1] = curve of first compound, second compound 0.1 µM
[2] = curve of first compound, second compound 0.316 µM
[3] = curve of first compound, second compound 1 µM
[4] = curve of first compound, second compound 3.16 µM
[5] = curve of first compound, second compound 10 µM
[6] = second compound 0.1 µM, first compound 0.00316 µM
[7] = second compound 0.1 µM, first compound 0.01 µM
[8] = second compound 0.1 µM, first compound 0.0316 µM
[9] = second compound 0.1 µM, first compound 0.1 µM
[10] = second compound 0.1 µM, first compound 0.316 µM
[11] = second compound 0.1 µM, first compound 1 µM
[12] = second compound 0.316 µM, first compound 0.00316 µM
[13] = second compound 0.316 µM, first compound 0.01 µM
[14] = second compound 0.316 µM, first compound 0.0316 µM
[15] = second compound 0.316 µM, first compound 0.1 µM
[16] = second compound 0.316 µM, first compound 0.316 µM
[17] = second compound 0.316 µM, first compound 1 µM
[18] = second compound 1 µM, first compound 0.00316 µM
[19] = second compound 1 µM, first compound 0.01 µM
[20] = second compound 1 µM, first compound 0.0316 µM
[21] = second compound 1 µM, first compound 0.1 µM
[22] = second compound 1 µM, first compound 0.316 µM
[23] = second compound 1 µM, first compound 1 µM
[24] = second compound 3.16 µM, first compound 0.00316 µM
[25] = second compound 3.16 µM, first compound 0.01 µM
[26] = second compound 3.16 µM, first compound 0.0316 µM
[27] = second compound 3.16 µM, first compound 0.1 µM
[28] = second compound 3.16 µM, first compound 0.316 µM
[29] = second compound 3.16 µM, first compound 1 µM
[30] = second compound 10 µM, first compound 0.00316 µM
[31] = second compound 10 µM, first compound 0.01 µM
[32] = second compound 10 µM, first compound 0.0316 µM
[33] = second compound 10 µM, first compound 0.1 µM
[34] = second compound 10 µM, first compound 0.316 µM
[35] = second compound 10 µM, first compound 1 µM
[36] = second compound 0.1 µM, first compound 3.16 µM
[37] = second compound 0.1 µM, first compound 10 µM
[38] = second compound 0.316 µM, first compound 3.16 µM
[39] = second compound 0.316 µM, first compound 10 µM
[40] = second compound 1 µM, first compound 3.16 µM
[41] = second compound 1 µM, first compound 10 µM
[42] = second compound 3.16 µM, first compound 3.16 µM
[43] = second compound 3.16 µM, first compound 10 µM
[44] = second compound 10 µM, first compound 3.16 µM
[45] = second compound 10 µM, first compound 10 µM

Nc1ncn(C2CC(O)C(CO)O2)c(=O)n1 (centres undefined) + NC1CCC(NC2CC2c2ccccc2)CC1
IC50 [1]: 82.7 nM
IC50 [2]: 126 nM
IC50 [3]: 76.7 nM
IC50 [4]: 59.7 nM
IC50 [5]: 18.5 nM
viability, T/C [6]: 109%
viability, T/C [7]: 113%
viability, T/C [8]: 73.4%
viability, T/C [9]: 48.6%
viability, T/C [10]: 26.1%
viability, T/C [11]: 23.5%
viability, T/C [12]: 106%
viability, T/C [13]: 91%
viability, T/C [14]: 78.3%
viability, T/C [15]: 53%
viability, T/C [16]: 33.8%
viability, T/C [17]: 18.9%
viability, T/C [18]: 105%
viability, T/C [19]: 91.7%
viability, T/C [20]: 74.6%
viability, T/C [21]: 41%
viability, T/C [22]: 28.2%
viability, T/C [23]: 19.4%
viability, T/C [24]: 93.3%
viability, T/C [25]: 83.3%
viability, T/C [26]: 63.1%
viability, T/C [27]: 40%
viability, T/C [28]: 24.1%
viability, T/C [29]: 20.8%
viability, T/C [30]: 63%
viability, T/C [31]: 57.8%
viability, T/C [32]: 43.1%
viability, T/C [33]: 27.3%
viability, T/C [34]: 17.2%
viability, T/C [35]: 15.9%

NS(=O)(=O)OCC1CC(n2ccc3c(NC4CCc5ccccc54)ncnc32)CC1O (centres undefined)
viability, T/C (compound 0.00949 µM): 94% and 94.6%
viability, T/C (compound 0.03 µM): 91% and 98.8%
viability, T/C (compound 0.0949 µM): 87.3% and 86.9%
viability, T/C (compound 0.3 µM): 72.3% and 74.8%
viability, T/C (compound 0.949 µM): 35.7% and 45.3%
viability, T/C (compound 3 µM): 14.5% and 17.2%
IC50 (curve of compound): 605 nM and 791 nM

CC1(C)CCC(CN2CCN(c3ccc(C(=O)NS(=O)(=O)c4ccc(NCC5CCOCC5)c([N+](=O)[O-])c4)c(Oc4cnc5[nH]ccc5c4)c3)CC2)=C(c2ccc(Cl)cc2)C1
viability, T/C (compound 0.0316 µM): 99.8% and 108%
viability, T/C (compound 0.1 µM): 108% and 106%
viability, T/C (compound 0.316 µM): 101% and 106%
viability, T/C (compound 1 µM): 104% and 105%
viability, T/C (compound 3.16 µM): 101% and 104%
viability, T/C (compound 10 µM): 94.1% and 90%
IC50 (curve of compound): > 10000 nM

CC(C)CC(NC(=O)C(Cc1ccccc1)NC(=O)c1cnccn1)B(O)O (centres undefined) + NC1CC1c1ccc(-c2cccc(O)c2)cc1
IC50 [1]: 12.2 nM
IC50 [2]: 12.7 nM
IC50 [3]: 14.2 nM
IC50 [4]: 12.2 nM
IC50 [5]: 11.8 nM
viability, T/C (second compound 0.1 µM, first compound 0.000316 µM): 110%
viability, T/C (second compound 0.1 µM, first compound 0.001 µM): 102%
viability, T/C [6]: 92.2%
viability, T/C [7]: 61%
viability, T/C [8]: 6.87%
viability, T/C [9]: 0.38%
viability, T/C (second compound 0.316 µM, first compound 0.000316 µM): 103%
viability, T/C (second compound 0.316 µM, first compound 0.001 µM): 103%
viability, T/C [12]: 94.6%
viability, T/C [13]: 61.7%
viability, T/C [14]: 6.88%
viability, T/C [15]: 0.32%
viability, T/C (second compound 1 µM, first compound 0.000316 µM): 106%
viability, T/C (second compound 1 µM, first compound 0.001 µM): 99.4%
viability, T/C [18]: 93.5%
viability, T/C [19]: 69%
viability, T/C [20]: 7.3%
viability, T/C [21]: 0.37%
viability, T/C (second compound 3.16 µM, first compound 0.000316 µM): 97.6%
viability, T/C (second compound 3.16 µM, first compound 0.001 µM): 98.8%
viability, T/C [24]: 87%
viability, T/C [25]: 58.2%
viability, T/C [26]: 14.1%
viability, T/C [27]: 0.23%
viability, T/C (second compound 10 µM, first compound 0.000316 µM): 90.5%
viability, T/C (second compound 10 µM, first compound 0.001 µM): 88.8%
viability, T/C [30]: 75.4%
viability, T/C [31]: 59.6%
viability, T/C [32]: 8.55%
viability, T/C [33]: 0.36%

CC1(C)CCC(CN2CCN(c3ccc(C(=O)NS(=O)(=O)c4ccc(NCC5CCOCC5)c([N+](=O)[O-])c4)c(Oc4cnc5[nH]ccc5c4)c3)CC2)=C(c2ccc(Cl)cc2)C1 + NC1CC1c1ccc(-c2cccc(O)c2)cc1
IC50 [1]: > 10000 nM
IC50 [2]: > 10000 nM
IC50 [3]: > 10000 nM
IC50 [4]: > 10000 nM
IC50 [5]: > 10000 nM
viability, T/C [8]: 107%
viability, T/C [9]: 109%
viability, T/C [10]: 109%
viability, T/C [11]: 104%
viability, T/C [36]: 101%
viability, T/C [37]: 95.6%
viability, T/C [14]: 110%
viability, T/C [15]: 111%
viability, T/C [16]: 113%
viability, T/C [17]: 101%
viability, T/C [38]: 103%
viability, T/C [39]: 89.7%
viability, T/C [20]: 103%
viability, T/C [21]: 106%
viability, T/C [22]: 103%
viability, T/C [23]: 99.8%
viability, T/C [40]: 101%
viability, T/C [41]: 99.4%
viability, T/C [26]: 97.1%
viability, T/C [27]: 97.8%
viability, T/C [28]: 102%
viability, T/C [29]: 108%
viability, T/C [42]: 98.6%
viability, T/C [43]: 89.8%
viability, T/C [32]: 88.6%
viability, T/C [33]: 98.4%
viability, T/C [34]: 92.3%
viability, T/C [35]: 94.5%
viability, T/C [44]: 81.6%
viability, T/C [45]: 75.7%

CC1COCCN1c1cc(C2(S(C)(=N)=O)CC2)nc(-c2ccnc3[nH]ccc23)n1 (centres undefined) + NC1CCC(NC2CC2c2ccccc2)CC1
IC50 [1]: > 10000 nM
IC50 [2]: > 10000 nM
IC50 [3]: 8560 nM
IC50 [4]: 7930 nM
IC50 [5]: 5240 nM
viability, T/C [8]: 98.9%
viability, T/C [9]: 104%
viability, T/C [10]: 105%
viability, T/C [11]: 95.6%
viability, T/C [36]: 82.8%
viability, T/C [37]: 50.5%
viability, T/C [14]: 101%
viability, T/C [15]: 98.8%
viability, T/C [16]: 102%
viability, T/C [17]: 94.5%
viability, T/C [38]: 71.8%
viability, T/C [39]: 55.5%
viability, T/C [20]: 104%
viability, T/C [21]: 102%
viability, T/C [22]: 97.6%
viability, T/C [23]: 97.5%
viability, T/C [40]: 84.5%
viability, T/C [41]: 44.2%
viability, T/C [26]: 96.4%
viability, T/C [27]: 96.8%
viability, T/C [28]: 94.6%
viability, T/C [29]: 84.4%
viability, T/C [42]: 68.6%
viability, T/C [43]: 45%
viability, T/C [32]: 98.4%
viability, T/C [33]: 92.7%
viability, T/C [34]: 89.7%
viability, T/C [35]: 83.8%
viability, T/C [44]: 61.3%
viability, T/C [45]: 34.6%
